# Values quoted from earlier work in patent US7678905B2, “Aminotetrahydropyrans as dipeptidyl peptidase-IV inhibitors for the treatment or prevention of diabetes” (Merck Sharp & Dohme Corp., priority 2006, dated 2010).
# Experiments:
# cardiac allograft = details: rats; survival doubled from day 7
# hematopoiesis = details: mouse, cyclophosphamide-induced neutropenia
# [1] = test system: GRF degradation in plasma
compound,measurement,setting,value
"CC(C)N1CCC(c2ccccc2)(c2ccccc2)CC1 [Prodipine, Pro-Pro-diphenyl-phosphonate]",cardiac allograft survival,cardiac allograft,14 day
CC(C)[C@H](N)C(=O)N1CCC[C@H]1B(O)O [Val-Boro-Pro],effect on hematopoiesis,hematopoiesis,stimulated hematopoiesis
diprotin A,degradation of GRF to GRF[3-44] in plasma,[1],prevented
